Consider 27 molecules from patent publication US11472798B2 (Mission Therapeutics Limited, priority 2014, dated 2022).

The test addresses T1, UCHL1 (Homo sapiens, UniProt P09936).
T1 construct: made in house; host or cells: HEK293T
T1 sequence (P09936 1-223): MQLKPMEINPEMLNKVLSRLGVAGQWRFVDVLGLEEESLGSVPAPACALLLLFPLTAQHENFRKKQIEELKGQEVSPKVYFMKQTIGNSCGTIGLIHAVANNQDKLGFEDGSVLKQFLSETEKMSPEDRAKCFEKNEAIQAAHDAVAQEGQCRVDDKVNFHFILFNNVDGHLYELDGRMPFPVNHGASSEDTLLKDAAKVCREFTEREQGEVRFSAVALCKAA
As to the kind of experiment: UCHL1 biochemical IC50 assay (fluorescence polarisation). The settings on record: 30 min enzyme/compound pre-incubation at room temp, read after 2 hr incubation, read-out: Activity range (UCHL1 biochemical IC50 assay). A digest of the protocol: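 Fluorescence polarisation (ex 540/em 590 nm) of 50 nM TAMRA-labelled ubiquitin–peptide isopeptide substrate was read at time zero and after 2 h at room temperature. Compounds (100–0.03 μM final, in duplicate) were given 30 min preincubation with N-FLAG UCHL1 from HEK293T cells in pH 7.5 Tris buffer.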

As usually defined, the IC50 is the concentration at which inhibition is half-maximal. In the case of `CN(C)CC(=O)N1CCc2nc(NC(=O)[C@H]3CCN(C#N)C3)sc2C1` [Example 197, (S)-1-cyano-N-(5-(dimethylglycyl)-4,5,6,7-tetrahydrothiazolo[5,4-c]pyridin-2-yl)pyrrolidine-3-carboxamide], the IC50 fell in the range of 1000 to 10000 nM.
As for `COC(=O)N1CCc2nc(NC(=O)[C@H]3CCN(C#N)C3)sc2C1` [Example 198, methyl (S)-2-(1-cyanopyrrolidine-3-carboxamido)-6,7-dihydrothiazolo[5,4-c]pyridine-5(4H)-carboxylate], the figure is less than 1000 nM.
For `COCCOC(=O)N1CCc2nc(NC(=O)[C@H]3CCN(C#N)C3)sc2C1` [Example 199, 2-methoxyethyl (S)-2-(1-cyanopyrrolidine-3-carboxamido)-6,7-dihydrothiazolo[5,4-c]pyridine-5(4H)-carboxylate], the IC50 fell in the range of 1000 to 10000 nM.
As for `CN1CCc2nc(NC(=O)[C@H]3CCN(C#N)C3)sc2C1` [Example 200, (S)-1-cyano-N-(5-methyl-4,5,6,7-tetrahydrothiazolo[5,4-c]pyridin-2-yl)pyrrolidine-3-carboxamide], the IC50 lay within 1000 to 10000 nM.
In the case of `N#CN1CC[C@H](C(=O)Nc2nc3c(s2)CN(Cc2ccccc2)CC3)C1` [Example 201, (S)—N-(5-benzyl-4,5,6,7-tetrahydrothiazolo[5,4-c]pyridin-2-yl)-1-cyanopyrrolidine-3-carboxamide], the concentration for half-maximal inhibition (IC50) was 1000 to 10000 nM.
Consider `CS(=O)(=O)N1CCc2nc(NC(=O)[C@H]3CCN(C#N)C3)sc2C1` [Example 202, (S)-1-cyano-N-(5-(methylsulfonyl)-4,5,6,7-tetrahydrothiazolo[5,4-c]pyridin-2-yl)pyrrolidine-3-carboxamide], for which the IC50 is less than 1000 nM.
As for `CC(C)S(=O)(=O)N1CCc2nc(NC(=O)[C@H]3CCN(C#N)C3)sc2C1` [Example 203, (S)-1-cyano-N-(5-(isopropylsulfonyl)-4,5,6,7-tetrahydrothiazolo[5,4-c]pyridin-2-yl)pyrrolidine-3-carboxamide], the figure is less than 1000 nM; as for `N#CN1CC[C@H](C(=O)Nc2nc3c(s2)CN(S(=O)(=O)c2ccccc2)CC3)C1` [Example 204, (S)-1-cyano-N-(5-(phenylsulfonyl)-4,5,6,7-tetrahydrothiazolo[5,4-c]pyridin-2-yl)pyrrolidine-3-carboxamide], less than 1000 nM.
Regarding `C#Cc1ccc(-c2cnc(NC(=O)[C@H]3CCN(C#N)C3)s2)cc1` [Example 205, (S)-1-cyano-N-(5-(4-ethynylphenyl)thiazol-2-yl)pyrrolidine-3-carboxamide], the IC50 is less than 1000 nM.
In the case of `C#Cc1cccc(-c2cnc(NC(=O)[C@H]3CCN(C#N)C3)s2)c1` [Example 206, (S)-1-cyano-N-(5-(3-ethynylphenyl)thiazol-2-yl)pyrrolidine-3-carboxamide], the IC50 was less than 1000 nM.
Consider `CC(NS(=O)(=O)c1ccc(NC(=O)[C@H]2CCN(C#N)C2)nc1)c1ccccc1` (stereo partly drawn) [Example 207, (3S)-1-cyano-N-(5-(N-(1-phenylethyl)sulfamoyl)pyridin-2-yl)pyrrolidine-3-carboxamide], for which the concentration for half-maximal inhibition (IC50) fell in the range of 1000 to 10000 nM.
Regarding `CC(c1ccccc1)N(C)S(=O)(=O)c1ccc(NC(=O)[C@H]2CCN(C#N)C2)nc1` (stereo partly drawn) [Example 208, (3S)-1-cyano-N-(5-(N-methyl-N-(1-phenylethyl)sulfamoyl)pyridin-2-yl)pyrrolidine-3-carboxamide], the IC50 was less than 1000 nM.
Regarding `Cc1nc(-c2ccc3nc(NC(=O)[C@H]4CCN(C#N)C4)cn3c2)no1` [Example 209, (S)-1-cyano-N-(6-(5-methyl-1,2,4-oxadiazol-3-yl)imidazo[1,2-a]pyridin-2-yl)pyrrolidine-3-carboxamide], the half-maximal inhibitory concentration (IC50) was less than 1000 nM.
As for `Cn1cc(-c2ccnc(NC(=O)[C@H]3CCN(C#N)C3)c2)cn1` [Example 211, (S)-1-cyano-N-(4-(1-methyl-1H-pyrazol-4-yl)pyridin-2-yl)pyrrolidine-3-carboxamide], the IC50 lay within 1000 to 10000 nM.
For the molecule `CN(C)S(=O)(=O)N1CCc2nc(NC(=O)[C@H]3CCN(C#N)C3)sc2C1` [Example 212, (S)-1-cyano-N-(5-(N,N-dimethylsulfamoyl)-4,5,6,7-tetrahydrothiazolo[5,4-c]pyridin-2-yl)pyrrolidine-3-carboxamide], the IC50 is less than 1000 nM.
For `N#CN1CC[C@H](C(=O)Nc2ncc(-c3ccnnc3)s2)C1` [Example 213, (S)-1-cyano-N-(5-(pyridazin-4-yl)thiazol-2-yl)pyrrolidine-3-carboxamide] the value was less than 1000 nM; for `N#Cc1ccc(-c2cnc(NC(=O)[C@H]3CCN(C#N)C3)s2)cc1F` [Example 214, (S)-1-cyano-N-(5-(4-cyano-3-fluorophenyl)thiazol-2-yl)pyrrolidine-3-carboxamide], less than 1000 nM; for `N#CN1CC[C@H](C(=O)Nc2ncc(-c3cccc4cn[nH]c34)s2)C1` [Example 215, (S)-N-(5-(1H-indazol-7-yl)thiazol-2-yl)-1-cyanopyrrolidine-3-carboxamide], less than 1000 nM.
Turning to `N#CN1CC[C@H](C(=O)Nc2ncc(-c3cccc(-n4ccnc4)c3)s2)C1` [Example 216, (S)-N-(5-(3-(1H-imidazol-1-yl)phenyl)thiazol-2-yl)-1-cyanopyrrolidine-3-carboxamide], the IC50 was less than 1000 nM.
Take `CS(=O)(=O)Nc1ccc(-c2cnc(NC(=O)[C@H]3CCN(C#N)C3)s2)cc1` [Example 217, (S)-1-cyano-N-(5-(4-(methylsulfonamido)phenyl)thiazol-2-yl)pyrro1idine-3-carboxamide]: the IC50 is less than 1000 nM.
Consider `N#CN1CC[C@H](C(=O)Nc2ncc(-c3cccc(-n4cccn4)c3)s2)C1` [Example 218, (S)-N-(5-(3-(1H-pyrazol-1-yl)phenyl)thiazol-2-yl)-1-cyanopyrrolidine-3-carboxamide], for which the IC50 is less than 1000 nM.
With `N#Cc1ccc(-c2cnc(NC(=O)[C@H]3CCN(C#N)C3)s2)cc1OC(F)(F)F` [Example 219, (S)-1-cyano-N-(5-(4-cyano-3-(trifluoromethoxy)phenyl)thiazol-2-yl)pyrrolidine-3-carboxamide], the IC50 is less than 1000 nM.
On to `COc1cc(-c2cnc(NC(=O)[C@H]3CCN(C#N)C3)s2)ccc1C#N` [Example 220, (S)-1-cyano-N-(5-(4-cyano-3-methoxyphenyl)thiazol-2-yl)pyrrolidine-3-carboxamide], for which the IC50 is less than 1000 nM.
`N#CN1CC[C@H](C(=O)Nc2ncc(-c3ccc(S(N)(=O)=O)cc3)s2)C1` [Example 221, (S)-1-cyano-N-(5-(4-sulfamoylphenyl)thiazol-2-yl)pyrrolidine-3-carboxamide]: the concentration for half-maximal inhibition (IC50) was less than 1000 nM.
For `N#CN1CC[C@H](C(=O)Nc2ncc(-c3ccc4cn[nH]c4c3)s2)C1` [Example 222, (S)-N-(5-(1H-indazol-6-yl)-2-yl)-1-cyanopyrrolidine-3-carboxamide] the value was less than 1000 nM.
For `N#CN1CC[C@H](C(=O)Nc2ncc(-c3ccc4[nH]ncc4c3)s2)C1` [Example 223, (S)-N-(5-(1H-indazol-5-yl)thiazol-2-yl)-1-cyanopyrrolidine-3-carboxamide] the value was less than 1000 nM; for `CNC(=O)c1cccc(-c2cnc(NC(=O)[C@H]3CCN(C#N)C3)s2)n1` [Example 224, (S)-6-(2-(1-cyanopyrrolidine-3-carboxamido)thiazol-5-yl)-N-methylpicolinamide], less than 1000 nM.
